Assay results published in the supplement of paper PMC12532568.

System: Danio rerio larvae Tg(actc1b:ZsGreen-LC3), 3 dpf
Assay: LC3 puncta relative area vs vehicle (mean) (log2 fold change); higher = more autophagy
Settings: treatment time 16 h
Procedure: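 Transgenic ZsGreen-LC3 zebrafish larvae (2 dpf) were treated for 16 h with natural bioactives at 10, 50, 100 or 250 µM. Skeletal-muscle LC3 puncta area was measured by high-content imaging with or without 4 h of 100 mM NH4Cl, normalised to vehicle, and reported as the mean log2 fold change over 4–21 larvae.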

Q: Which “LC3 puncta (log2)” value (NH4Cl: + NH4Cl, 10 µM) does the source give for C[C@H](O)CCO [(S)-1,3-Butylene Glycol] here?
A: Its value is 0.505.

Q: And the “LC3 puncta (log2)” value (NH4Cl: + NH4Cl, 50 µM)?
A: The value was -0.0626.

Q: What about the “LC3 puncta (log2)” value (NH4Cl: + NH4Cl, 100 µM) of the same compound?
A: The value was 0.509.

Q: What about the “LC3 puncta (log2)” value (NH4Cl: - NH4Cl, 10 µM) of the same compound?
A: The value was -0.143.

Q: What about the “LC3 puncta (log2)” value (NH4Cl: - NH4Cl, 50 µM) of the same compound?
A: The value was -0.512.

Q: What about the “LC3 puncta (log2)” value (NH4Cl: - NH4Cl, 100 µM) of the same compound?
A: The value was -0.016.

Q: What about the “LC3 puncta (log2)” value (NH4Cl: - NH4Cl, 250 µM) of the same compound?
A: The value was 0.014.

Q: Which “LC3 puncta (log2)” value (NH4Cl: + NH4Cl, 10 µM) does the source give for CCCCC(=O)[O-].[Na+] [Valeric acid sodium salt] here?
A: Its value is -0.472.

Q: And the “LC3 puncta (log2)” value (NH4Cl: + NH4Cl, 50 µM)?
A: The value was -0.35.

Q: And the “LC3 puncta (log2)” value (NH4Cl: + NH4Cl, 100 µM)?
A: Its value is -0.0575.

Q: And the “LC3 puncta (log2)” value (NH4Cl: + NH4Cl, 250 µM)?
A: Its value is -0.14.

Q: And the “LC3 puncta (log2)” value (NH4Cl: - NH4Cl, 10 µM)?
A: Its value is -0.132.

Q: And the “LC3 puncta (log2)” value (NH4Cl: - NH4Cl, 50 µM)?
A: Its value is 0.109.

Q: What about the “LC3 puncta (log2)” value (NH4Cl: - NH4Cl, 100 µM) of the same compound?
A: Its value is -0.272.

Q: And the “LC3 puncta (log2)” value (NH4Cl: - NH4Cl, 250 µM)?
A: Its value is -0.191.

Q: With O=c1oc2cc(O)ccc2c2ccccc12 [Urolithin B] as the compound, how does the “LC3 puncta (log2)” value (NH4Cl: + NH4Cl, 10 µM) read?
A: The value was 0.159.

Q: What about the “LC3 puncta (log2)” value (NH4Cl: + NH4Cl, 50 µM) of the same compound?
A: Its value is 1.38.

Q: And the “LC3 puncta (log2)” value (NH4Cl: + NH4Cl, 100 µM)?
A: The value was 1.04.

Q: What about the “LC3 puncta (log2)” value (NH4Cl: - NH4Cl, 10 µM) of the same compound?
A: Its value is 0.474.

Q: What about the “LC3 puncta (log2)” value (NH4Cl: - NH4Cl, 50 µM) of the same compound?
A: The value was 0.688.

Q: And the “LC3 puncta (log2)” value (NH4Cl: - NH4Cl, 100 µM)?
A: The value was 0.767.

Q: How did the “LC3 puncta (log2)” value (NH4Cl: + NH4Cl, 10 µM) turn out when NC(=O)c1ccc[n+]([C@@H]2O[C@H](CO)[C@@H](O)[C@H]2O)c1 [Nicotinamide riboside chloride] was run?
A: The value was 0.917.

Q: What about the “LC3 puncta (log2)” value (NH4Cl: + NH4Cl, 50 µM) of the same compound?
A: Its value is 0.613.

Q: And the “LC3 puncta (log2)” value (NH4Cl: + NH4Cl, 100 µM)?
A: The value was 0.663.

Q: And the “LC3 puncta (log2)” value (NH4Cl: + NH4Cl, 250 µM)?
A: Its value is 0.76.

Q: What about the “LC3 puncta (log2)” value (NH4Cl: - NH4Cl, 10 µM) of the same compound?
A: Its value is 0.148.

Q: What about the “LC3 puncta (log2)” value (NH4Cl: - NH4Cl, 50 µM) of the same compound?
A: Its value is -0.293.

Q: And the “LC3 puncta (log2)” value (NH4Cl: - NH4Cl, 100 µM)?
A: Its value is 0.0672.

Q: What about the “LC3 puncta (log2)” value (NH4Cl: - NH4Cl, 250 µM) of the same compound?
A: Its value is 0.257.

Q: Which results are given for C[C@@H](CO)C(=O)O [Sodium β-hydroxyisobutyrate]?
A: LC3 puncta (log2) (NH4Cl: + NH4Cl, 10 µM): 0.761; LC3 puncta (log2) (NH4Cl: + NH4Cl, 50 µM): 0.505; LC3 puncta (log2) (NH4Cl: + NH4Cl, 100 µM): 0.553; LC3 puncta (log2) (NH4Cl: + NH4Cl, 250 µM): 0.277; LC3 puncta (log2) (NH4Cl: - NH4Cl, 10 µM): 0.14; LC3 puncta (log2) (NH4Cl: - NH4Cl, 50 µM): -0.573; LC3 puncta (log2) (NH4Cl: - NH4Cl, 100 µM): -0.233; LC3 puncta (log2) (NH4Cl: - NH4Cl, 250 µM): -0.327

Q: Which results are given for CCCCCCCCCCCCCCCCCC(=O)O [stearic acid]?
A: LC3 puncta (log2) (NH4Cl: + NH4Cl, 10 µM): 0.718; LC3 puncta (log2) (NH4Cl: + NH4Cl, 50 µM): 0.677; LC3 puncta (log2) (NH4Cl: + NH4Cl, 100 µM): 0.635; LC3 puncta (log2) (NH4Cl: + NH4Cl, 250 µM): 1.13; LC3 puncta (log2) (NH4Cl: - NH4Cl, 10 µM): 0.39; LC3 puncta (log2) (NH4Cl: - NH4Cl, 50 µM): 0.392; LC3 puncta (log2) (NH4Cl: - NH4Cl, 100 µM): 0.127; LC3 puncta (log2) (NH4Cl: - NH4Cl, 250 µM): 0.245

Q: For C[N+](C)(C)CCO.C[N+](C)(C)CCO.C[N+](C)(C)CCO.O=P([O-])([O-])[O-] [Tricholine phosphate], which “LC3 puncta (log2)” value (NH4Cl: + NH4Cl, 10 µM) is on record?
A: Its value is 0.7.

Q: And the “LC3 puncta (log2)” value (NH4Cl: + NH4Cl, 50 µM)?
A: The value was 0.208.

Q: What about the “LC3 puncta (log2)” value (NH4Cl: + NH4Cl, 100 µM) of the same compound?
A: Its value is -0.172.

Q: What about the “LC3 puncta (log2)” value (NH4Cl: + NH4Cl, 250 µM) of the same compound?
A: The value was 0.38.

Q: And the “LC3 puncta (log2)” value (NH4Cl: - NH4Cl, 10 µM)?
A: The value was 0.0959.

Q: What about the “LC3 puncta (log2)” value (NH4Cl: - NH4Cl, 50 µM) of the same compound?
A: Its value is 0.0907.

Q: And the “LC3 puncta (log2)” value (NH4Cl: - NH4Cl, 100 µM)?
A: Its value is 0.25.

Q: What about the “LC3 puncta (log2)” value (NH4Cl: - NH4Cl, 250 µM) of the same compound?
A: Its value is -0.277.

Q: With OCC(O)CO [Glycerol] as the compound, how does the “LC3 puncta (log2)” value (NH4Cl: + NH4Cl, 10 µM) read?
A: Its value is 0.468.

Q: And the “LC3 puncta (log2)” value (NH4Cl: + NH4Cl, 50 µM)?
A: Its value is -0.233.

Q: What about the “LC3 puncta (log2)” value (NH4Cl: + NH4Cl, 100 µM) of the same compound?
A: Its value is 0.425.

Q: What about the “LC3 puncta (log2)” value (NH4Cl: + NH4Cl, 250 µM) of the same compound?
A: The value was 0.628.

Q: And the “LC3 puncta (log2)” value (NH4Cl: - NH4Cl, 10 µM)?
A: Its value is 0.0358.

Q: What about the “LC3 puncta (log2)” value (NH4Cl: - NH4Cl, 50 µM) of the same compound?
A: Its value is -0.0173.

Q: What about the “LC3 puncta (log2)” value (NH4Cl: - NH4Cl, 100 µM) of the same compound?
A: Its value is 0.118.

Q: What about the “LC3 puncta (log2)” value (NH4Cl: - NH4Cl, 250 µM) of the same compound?
A: The value was 0.027.

Q: For C[C@@H](O)C(=O)O [(2R)-2-hydroxypropanoic acid], which “LC3 puncta (log2)” value (NH4Cl: + NH4Cl, 10 µM) is on record?
A: The value was 0.532.

Q: What about the “LC3 puncta (log2)” value (NH4Cl: + NH4Cl, 50 µM) of the same compound?
A: Its value is 0.237.

Q: And the “LC3 puncta (log2)” value (NH4Cl: + NH4Cl, 100 µM)?
A: Its value is 0.304.

Q: What about the “LC3 puncta (log2)” value (NH4Cl: + NH4Cl, 250 µM) of the same compound?
A: The value was 0.589.

Q: And the “LC3 puncta (log2)” value (NH4Cl: - NH4Cl, 10 µM)?
A: Its value is 0.00532.

Q: And the “LC3 puncta (log2)” value (NH4Cl: - NH4Cl, 50 µM)?
A: Its value is -0.27.

Q: What about the “LC3 puncta (log2)” value (NH4Cl: - NH4Cl, 100 µM) of the same compound?
A: The value was 0.144.

Q: And the “LC3 puncta (log2)” value (NH4Cl: - NH4Cl, 250 µM)?
A: Its value is -0.203.

Q: With CCC(O)CC(=O)O (stereo unspecified) [b-Hydroxyvalerate] as the compound, how does the “LC3 puncta (log2)” value (NH4Cl: + NH4Cl, 10 µM) read?
A: The value was 0.933.

Q: What about the “LC3 puncta (log2)” value (NH4Cl: + NH4Cl, 50 µM) of the same compound?
A: The value was 0.6.

Q: And the “LC3 puncta (log2)” value (NH4Cl: + NH4Cl, 100 µM)?
A: Its value is 1.08.

Q: What about the “LC3 puncta (log2)” value (NH4Cl: + NH4Cl, 250 µM) of the same compound?
A: The value was 1.21.

Q: What about the “LC3 puncta (log2)” value (NH4Cl: - NH4Cl, 10 µM) of the same compound?
A: Its value is 0.353.

Q: And the “LC3 puncta (log2)” value (NH4Cl: - NH4Cl, 50 µM)?
A: The value was 0.272.

Q: What about the “LC3 puncta (log2)” value (NH4Cl: - NH4Cl, 100 µM) of the same compound?
A: Its value is 0.404.

Q: And the “LC3 puncta (log2)” value (NH4Cl: - NH4Cl, 250 µM)?
A: Its value is 0.37.

Q: For O=C(O)c1ccccc1 [Benzoic acid], which “LC3 puncta (log2)” value (NH4Cl: + NH4Cl, 10 µM) is on record?
A: The value was -0.0668.

Q: What about the “LC3 puncta (log2)” value (NH4Cl: + NH4Cl, 50 µM) of the same compound?
A: The value was 0.917.

Q: What about the “LC3 puncta (log2)” value (NH4Cl: + NH4Cl, 100 µM) of the same compound?
A: The value was 1.5.

Q: What about the “LC3 puncta (log2)” value (NH4Cl: - NH4Cl, 10 µM) of the same compound?
A: The value was 0.129.

Q: What about the “LC3 puncta (log2)” value (NH4Cl: - NH4Cl, 50 µM) of the same compound?
A: Its value is 0.383.

Q: What about the “LC3 puncta (log2)” value (NH4Cl: - NH4Cl, 100 µM) of the same compound?
A: Its value is 1.14.

Q: Which results are given for CCCCCCCC(=O)[O-].[Na+] [Sodium octanoate]?
A: LC3 puncta (log2) (NH4Cl: + NH4Cl, 10 µM): 0.613; LC3 puncta (log2) (NH4Cl: + NH4Cl, 50 µM): 0.427; LC3 puncta (log2) (NH4Cl: + NH4Cl, 100 µM): 0.342; LC3 puncta (log2) (NH4Cl: + NH4Cl, 250 µM): 0.503; LC3 puncta (log2) (NH4Cl: - NH4Cl, 10 µM): -0.0249; LC3 puncta (log2) (NH4Cl: - NH4Cl, 50 µM): 0.344; LC3 puncta (log2) (NH4Cl: - NH4Cl, 100 µM): 0.217; LC3 puncta (log2) (NH4Cl: - NH4Cl, 250 µM): 0.272
